This series addresses HTT. Description: mouse, dose not given. The conditions noted are these: ASO.

Ten substances from the OligoGym collection can be followed below.

HELM strings list units from the 5' end as sugar, base in round brackets, then linkage (d deoxyribose, r ribose, m 2'-O-methyl, p phosphodiester). Strings are as the collection lists them; they lack the last nucleoside at the 3' end of the tested compound. [moe] = 2'-O-(2-methoxyethyl) (MOE); [sp] = phosphorothioate linkage; [m5C] = 5-methylcytosine

The substance “RNA1{[moe](T)[sp].[moe]([m5C])p.[moe](A)p.[moe]([m5C])p.[moe](A)[sp].d(G)[sp].d([m5C])[sp].d(T)[sp].d(T)[sp].d(T)[sp].d(T)[sp].d(A)[sp].d(T)[sp].[moe](T)p.[moe](T)p.[moe]([m5C])[sp].[moe]([m5C])}$$$$ (last 3' nucleoside missing)” yielded a 3 h FOB score of 0 score 0-7.

Consider “RNA1{[moe](A)[sp].[moe](T)p.[moe]([m5C])p.[moe]([m5C])p.[moe](A)[sp].d(G)[sp].d(A)[sp].d(T)[sp].d(T)[sp].d(A)[sp].d(T)[sp].d(A)[sp].d([m5C])[sp].d(A)[sp].d(T)[sp].[moe]([m5C])p.[moe](T)p.[moe]([m5C])[sp].[moe]([m5C])}$$$$ (last 3' nucleoside missing)”, for which the 3 h FOB score worked out at 0 score 0-7.

“RNA1{[moe](G)[sp].[moe]([m5C])p.[moe](T)p.[moe](T)p.[moe](T)[sp].d(T)[sp].d(G)[sp].d(A)[sp].d(A)[sp].d(A)[sp].d(T)[sp].d(T)[sp].d([m5C])[sp].d(T)[sp].d([m5C])[sp].[moe]([m5C])p.[moe](A)p.[moe](T)[sp].[moe]([m5C])}$$$$ (last 3' nucleoside missing)” yielded a 3 h FOB score of 6.75 score 0-7.

“RNA1{[moe]([m5C])[sp].[moe](A)p.[moe]([m5C])p.[moe](A)p.[moe](G)p.[moe]([m5C])p.d(T)[sp].d(T)[sp].d(T)[sp].d(T)[sp].d(A)[sp].d(T)[sp].d(T)[sp].d(T)[sp].d([m5C])[sp].d([m5C])[sp].[moe](A)p.[moe](T)[sp].[moe](A)}$$$$ (last 3' nucleoside missing)” registered a 3 h FOB score of 0 score 0-7.

The substance “RNA1{[moe]([m5C])[sp].[moe](T)p.[moe](T)p.[moe](G)p.[moe](G)p.[moe](T)p.d(T)[sp].d(A)[sp].d(G)[sp].d(T)[sp].d(T)[sp].d(T)[sp].d(T)[sp].d([m5C])[sp].d([m5C])[sp].d(T)[sp].[moe](T)p.[moe](T)[sp].[moe](T)}$$$$ (last 3' nucleoside missing)” displayed a 3 h FOB score of 4.25 score 0-7.

For the substance “RNA1{[moe](G)[sp].[moe](G)p.[moe](T)p.[moe]([m5C])p.[moe](A)[sp].d([m5C])[sp].d(A)[sp].d(G)[sp].d([m5C])[sp].d(T)[sp].d(T)[sp].d(T)[sp].d(T)[sp].d(A)[sp].d(T)[sp].[moe](T)p.[moe](T)p.[moe]([m5C])[sp].[moe]([m5C])}$$$$ (last 3' nucleoside missing)”, the 3 h FOB score stood at 0 score 0-7.

Take “RNA1{[moe](G)[sp].[moe]([m5C])p.[moe](A)p.[moe](T)p.[moe](T)[sp].d(A)[sp].d([m5C])[sp].d(T)[sp].d(T)[sp].d(T)[sp].d(T)[sp].d(T)[sp].d(A)[sp].d([m5C])[sp].d(A)[sp].[moe](A)p.[moe](T)p.[moe](G)[sp].[moe](G)}$$$$ (last 3' nucleoside missing)”: the 3 h FOB score came out at 1 score 0-7.

As to “RNA1{[moe](G)[sp].[moe]([m5C])p.[moe](T)p.[moe](T)p.[moe](T)[sp].d(G)[sp].d(A)[sp].d(T)[sp].d(T)[sp].d(T)[sp].d(T)[sp].d(T)[sp].d(A)[sp].d([m5C])[sp].d([m5C])[sp].[moe](A)p.[moe](G)p.[moe](T)[sp].[moe](T)}$$$$ (last 3' nucleoside missing)”, the 3 h FOB score was 1 score 0-7.

Substance “RNA1{[moe](G)[sp].[moe]([m5C])p.[moe]([m5C])p.[moe](A)p.[moe](T)[sp].d(A)[sp].d(T)[sp].d(T)[sp].d(T)[sp].d(T)[sp].d([m5C])[sp].d(T)[sp].d([m5C])[sp].d(A)[sp].d(A)[sp].[moe]([m5C])p.[moe](T)p.[moe](T)[sp].[moe](T)}$$$$ (last 3' nucleoside missing)” displayed a 3 h FOB score of 0 score 0-7.

For the substance “RNA1{[moe](A)[sp].[moe]([m5C])p.[moe](A)p.[moe](G)p.[moe]([m5C])p.[moe](T)p.d(T)[sp].d(T)[sp].d(T)[sp].d(A)[sp].d(T)[sp].d(T)[sp].d(T)[sp].d([m5C])[sp].d([m5C])[sp].d(A)[sp].[moe](T)p.[moe](A)[sp].[moe]([m5C])}$$$$ (last 3' nucleoside missing)”, the 3 h FOB score stood at 0 score 0-7.
